Data reported in patent US20110104177A1, “HISTONE DEACETYLASE INHIBITORS, COMBINATION THERAPIES AND METHODS OF USE” (THE JOHNS HOPKINS UNIVERSITY, priority 2006, published 2011).

Columns and labels:
[1] = test system: SFRP1, SFRP2, MLH1, CRBP1, E-cadherin genes in RKO cells; test: RT-PCR re-expression of silenced tumor suppressor genes in RKO cells; format: cell-based, human; conditions: RKO cells; for SFRP1 RT-PCR specific band: doses of 20 and 50 μM, 24 or 48 hours
Protocol: To inhibit any residual SIRT1 protein, remaining RNAi-expressing cells were treated with 700 μM SPT and control samples were treated with DMSO for 24 hours. […] RKO cells were also treated with 0.5 μM Aza (24 hours), and samples were analyzed as described in FIG. 1A; RT-PCR was performed with intron-spanning primers specific for the two genes. GAPDH was also analyzed as a control. […] Control samples in which no reverse transcriptase was added were analyzed separately, and all were negative for amplification of the indicated genes. […] The level of TSG re-expression induced by Aza treatment or SIRT1 inhibition as described in FIG. 4(A) was compared to levels of expression in HCT116 cells in which the TSGs are basally expressed.
(§1) Cell culture and retroviral infection. MDA-MB-231, MCF7, HCT116, SW480 RKO, and Phoenix cells (ATCC, Rockville, Md., United States) were cultured in Dulbecco's modified Eagle's medium supplemented with 10% fetal bovine serum and 1% penicillin/streptomycin (Invitrogen, Carlsbad, Calif., United States). Retroviral infection was performed using either single or multiple rounds of infection. Briefly, Phoenix cells were transfected with either pBabe, pBabe-SIRT1H363Y, pSUPERretro, pSUPERretro-SIRT1-RNAi-1-3 (NM_012238 positions 410, 589, and 1091; Oligo Engine, Seattle, Wash., United States) using Lipofectamine 2000 (Invitrogen). After 48 h of transfection, the medium containing retrovirus was collected, filtered, and supplemented with Polybrene prior to infection of target cells (MDA-MB-231, MCF7, or HCT116). Infected cells were either harvested 24-48 hours later or subjected to selection with 2-3 μg/ml puromycin for a week prior to harvest and analysis.
(§2) RNA and protein preparation and analysis. Total RNA was extracted (Invitrogen) according to the manufacturer's instructions and subjected to reverse transcription followed by both quantitative real-time and semi-quantitative polymerase chain reaction. For quantitative real-time analyses, the QuantiTect SYBR Green PCR kit (Qiagen, Valencia, Calif., United States) was used and the amplification conditions consisted of an initial 10-minutes denaturation step at 95° C., followed by 40 cycles of denaturation at 95° C. for 15 s and annealing and extension for 30 seconds and 60 seconds, respectively. A BioRad iCycler was used (BioRad, Hercules, Calif., United States), and for quantitation the comparative cycle threshold (Ct) method was used, normalizing the Ct values for the indicated gene to the Ct values of GAPDH relative to a control sample. For conventional PCR, at least two independent sets of intron-spanning primers were used for the analysis of multiple genes, such as CRBP1, (NM_002899), E-cadherin, (L34545), SFRP1, (BC036503), SFRP2, (BC008666), and Gata-4 (L34357). For Western blots, cells stably expressing RNAi constructs were harvested in 50 mM Tris-HCl, 1% NP-40, 0.25% sodium deoxycholate, 150 mM NaCl, 50 mM sodium fluoride, 1 mM dithiothreitol, 1 mM AEBSF, 1× Complete protease inhibitor cocktail (Roche, Basel, Switzerland). Protein concentrations were measured by BCA (Pierce Biotechnology, Rockford, Ill., United States). […] On the same blot, β-actin (Sigma, St. Louis, Mo., United States) was probed to ensure equal loading.
(§3) The results from experiments performed in RKO cells are shown in FIG. 7 which presents RT-PCR results for SFRP1. […] The expression seemed stronger than for 300 μM splitomycin (Spt) or 20 mM nicotinamide (Nia) when these latter two drugs were used alone or in combination, but not as strong as the expression induced by 1 μM of the DNA demethylating agent, deoxy-aza-cytidine (Aza). […] Experiments were carried out as essentially described above.

[2] = target: T1, SIRT1 (Homo sapiens, UniProt Q96EB6); test: Activity against the SIRT1 enzyme / SIRT1 deacetylase activity; format: biochemical
T1 sequence (Q96EB6 1-747): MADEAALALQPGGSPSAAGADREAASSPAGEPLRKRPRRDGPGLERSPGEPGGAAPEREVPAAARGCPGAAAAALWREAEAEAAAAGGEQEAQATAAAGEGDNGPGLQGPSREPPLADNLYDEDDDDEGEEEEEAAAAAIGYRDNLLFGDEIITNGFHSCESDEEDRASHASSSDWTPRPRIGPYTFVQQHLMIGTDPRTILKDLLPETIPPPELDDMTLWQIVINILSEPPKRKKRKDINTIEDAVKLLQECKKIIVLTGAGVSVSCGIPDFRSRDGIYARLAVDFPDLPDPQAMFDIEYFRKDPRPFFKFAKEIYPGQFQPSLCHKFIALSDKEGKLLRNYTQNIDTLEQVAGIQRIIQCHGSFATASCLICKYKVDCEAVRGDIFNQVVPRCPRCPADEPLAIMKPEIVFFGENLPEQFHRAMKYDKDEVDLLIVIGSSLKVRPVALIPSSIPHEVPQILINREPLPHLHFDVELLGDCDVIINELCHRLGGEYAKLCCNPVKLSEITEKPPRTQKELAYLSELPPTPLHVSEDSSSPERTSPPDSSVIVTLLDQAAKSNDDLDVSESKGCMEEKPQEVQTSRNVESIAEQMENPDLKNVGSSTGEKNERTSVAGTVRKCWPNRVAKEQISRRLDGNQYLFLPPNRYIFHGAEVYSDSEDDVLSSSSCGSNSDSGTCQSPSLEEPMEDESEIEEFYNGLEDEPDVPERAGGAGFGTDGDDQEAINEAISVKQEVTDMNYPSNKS

[3] = test system: SFRP1 and 2 genes in human breast cancer cells (line H231); test: Re-activation of SFRP1 and 2 genes in breast cancer cells (line H231); format: cell-based
Protocol: This has been accomplished for the SFRP1 and 2 genes in human breast cancer cells (line H231) and for SFRP1 in human colon cancer cells (line RKO).
as §3

[4] = test system: SFRP1, SFRP2, E-cadherin, CRBP1 genes in MDA-MB-231 cells; test: RT-PCR re-expression of silenced tumor suppressor genes in MDA-MB-231 cells; format: cell-based, human; conditions: MDA-MB-231 cells
Protocol: The panels of FIG. 2 are as follows. […] MDA-MB-231 cells were treated with 15 mM NIA or 300 μM SPT for 21 hours, RNA was isolated, and RT-PCR was performed with intron-spanning primers specific for the indicated genes. Control samples in which no reverse transcriptase was added were analyzed separately, and all were negative for amplification of the indicated genes. […] MDA-MB-231 cells were treated with either 50 nM Aza (+), 100 μM SPT (+) or with both Aza and SPT (++), and 34 hours later, RT-PCR was performed for the indicated genes as described in FIG. 2(A). […] MDA-MB-231 cells were treated with either 0, 50, 100, or 120 μM SPT alone for 34 hours, or the treatment was followed by treatment with 300 nM TSA for 3 hours prior to RNA isolation and RT-PCR analysis. […] MDA-MB-231 cells were infected with low titers of virus for shRNA specific for SIRT1. Aza (100 nM) was added 24 hours prior to RNA isolation, and RT-PCR analysis was performed for the genes SFRP 1, SFRP2, and GAPDH as described in FIG. 2(A). […] As shown in the left panel, MDA-MB-231 cells were infected with a control (vec) or mutant SIRT1 virus (HY), and RT-PCR was performed as described in FIG. 2(A). MDA-MB-231 cells were infected with low titers of pBabe or pBabe-SIRT1H363Y retrovirus and subsequently treated with 100 nM Aza for 24 hours or with 300 nM TSA for 3 hours prior to harvest, and RT-PCR was performed.
as §1, §2

[5] = test system: SFRP1 and SFRP2 genes in MCF7 cells; test: RT-PCR re-expression of silenced tumor suppressor genes in MCF7 cells; format: cell-based, human
Protocol: as §1, §2

[6] = test system: SIRT1; test: Western blot of SIRT1 protein after retroviral shRNA infection; format: cell-based, human; conditions: MDA-MB-231 cells
Protocol: as §1, §2

[7] = test system: SFRP1, SFRP2, GATA4 promoter methylation in MDA-MB-231 cells; test: Promoter DNA methylation by bisulfite sequencing and MSP; format: cell-based, human; conditions: MDA-MB-231 cells stably infected
From the text: The panels of FIG. 3 are as follows. […] Parallel samples analyzed in FIG. 1D were subjected to bisulfite sequencing of the SFRP1 promoter from MDA-MB-231 cells stably infected with control vector or RNAi-2 or RNAi-3 retrovirus. Open circles indicate unmethylated cytosines, and closed circles indicate methylated cytosines. Numbers at the bottom show the position of cytosines relative to the transcription start site, which is at position 0, and those with a minus sign (−) are upstream from this start site. The region sequenced encompasses the CpG island in which methylation status correlates with gene expression status. […] From left to right: (−) PCR Ctrl indicates H2O only; (−) BS ctrl indicates bisulfite-treated H20; (+) M ctrl indicates the cell line in which SFRP1 is partially methylated and SFRP2 and GATA4 are fully methylated; and (+) U ctrl indicates the Tera-2 cell line in which each gene is unmethylated. All remaining lanes are for MDA-MB-231. From left to right: Aza indicates 1 μM Aza (24 hours) treatment; Ctrl indicates empty vector infection; RNAi-2 indicates shRNA-2 infection alone; RNAi-3 indicates shRNA-3 infection alone; Aza indicates 1 μM Aza (24 hours treatment of control cells; Ctrl indicates empty vector infection+vehicle; RNAi-2 indicates shRNA-2 infection+5 mM NIA treatment; and RNAi-3 indicates shRNA-3 infection+5 mM NIA treatment.
MSP and bisulfite sequencing. […]

Molecule: NC(=O)[C@@H]1CCCc2c1[nH]c1ccc(Cl)cc21 [(R)-6-chloro-2,3,4,9-tetrahydro-1H-carbazole-1-carboxamide]
- SFRP1 RT-PCR specific band [1]: produces no specific band
- inhibition of SIRT1 deactylase activity [2]: inactive

Molecule: NC(=O)[C@H]1CCCc2c1[nH]c1ccc(Cl)cc21 [(S)-6-chloro-2,3,4,9-tetrahydro-1H-carbazole-1-carboxamide]
- transcriptional re-activation of SFRP1 and 2 genes [3]: the same effects have been achieved
- SFRP1 expression compared with 1 μM deoxy-aza-cytidine (Aza) ([1]; RT-PCR): not as strong
- SFRP1 expression compared with 300 μM splitomycin or 20 mM nicotinamide, alone or in combination ([1]; RT-PCR): stronger
- SFRP1 RT-PCR specific band [1]: produce the band at both time points
- inhibition of SIRT1 deactylase activity [2]: potent inhibition

Molecule: NC(=O)c1cccnc1 [NIA, nicotinamide, reference compound]
- re-expression of epigenetically silenced, hypermethylated TSGs incl. CRBP1 ([4]; 15 mM NIA or 300 μM SPT for 21 hours): could cause the re-expression
- re-expression of epigenetically silenced, hypermethylated TSGs ([5]; sirtuin inhibitors, data not shown): could cause the re-expression

Molecule: RNAi-2: shRNA targeting SIRT1 mRNA, sequence GGCCACGGATAGGTCCATA, NM_012238 position 589
- reduction of SIRT1 protein (knockdown) [6]: very effective in reducing protein levels
- SFRP1 promoter methylation profile (bisulfite sequencing) [7]: without changes in the methylation profile
- gene re-expression of SFRP1, SFRP2 and E-cadherin ([4]; shRNA retroviral infection, RT-PCR): led to gene re-expression

B1: SIRT1H363Y: catalytically inactive, dominant negative inhibitor of SIRT1, expressed through retroviral infection (protein, UniProt Q96EB6 2-747, looked up, variant H363Y)
NAD-dependent protein …: ADEAALALQPGGSPSAAGADREAASSPAGEPLRKRPRRDGPGLERSPGEPGGAAPEREVPAAARGCPGAAAAALWREAEAEAAAAGGEQEAQATAAAGEGDNGPGLQGPSREPPLADNLYDEDDDDEGEEEEEAAAAAIGYRDNLLFGDEIITNGFHSCESDEEDRASHASSSDWTPRPRIGPYTFVQQHLMIGTDPRTILKDLLPETIPPPELDDMTLWQIVINILSEPPKRKKRKDINTIEDAVKLLQECKKIIVLTGAGVSVSCGIPDFRSRDGIYARLAVDFPDLPDPQAMFDIEYFRKDPRPFFKFAKEIYPGQFQPSLCHKFIALSDKEGKLLRNYTQNIDTLEQVAGIQRIIQCYGSFATASCLICKYKVDCEAVRGDIFNQVVPRCPRCPADEPLAIMKPEIVFFGENLPEQFHRAMKYDKDEVDLLIVIGSSLKVRPVALIPSSIPHEVPQILINREPLPHLHFDVELLGDCDVIINELCHRLGGEYAKLCCNPVKLSEITEKPPRTQKELAYLSELPPTPLHVSEDSSSPERTSPPDSSVIVTLLDQAAKSNDDLDVSESKGCMEEKPQEVQTSRNVESIAEQMENPDLKNVGSSTGEKNERTSVAGTVRKCWPNRVAKEQISRRLDGNQYLFLPPNRYIFHGAEVYSDSEDDVLSSSSCGSNSDSGTCQSPSLEEPMEDESEIEEFYNGLEDEPDVPERAGGAGFGTDGDDQEAINEAISVKQEVTDMNYPSNKS
- re-expression of SFRP1 and SFRP2 ([4]; dominant negative expressed through retroviral infection): re-expression of SFRP1 and SFRP2
- reactivation of SFRP1 (GATA-5 and SFRP2 data not shown), combined with Aza ([4]; low titers of retrovirus, 100 nM Aza for 24 hours): synergistic reactivation of SFRP1
- reactivation of SFRP1 (GATA-5 and SFRP2 data not shown), combined with TSA ([4]; low titers of retrovirus, 300 nM TSA for 3 hours): synergistic reactivation of SFRP1
- gene re-expression of SFRP1 and SFRP2 ([5]; retroviral infection, RT-PCR): re-expression of SFRP1 and SFRP2
